In PubChem BioAssay AID192 (DTP/NCI, 2004):
Inconclusive results and toxic doses are left out.

System: BDF1 mice, B16 melanoma ip, median survival T/C
Test: NCI In Vivo Anticancer Drug Screen. Data for tumor model B16 Melanoma (intraperitoneal) in B6D2F1 (BDF1) mice
Details: endpoint: median survival time, higher = longer survival
Summary of the method: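 Compounds were tested in mice carrying transplantable tumors. Survival or tumor size was recorded, and each value is the treated-group measurement (T) divided by that of the vehicle-treated control group (C).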

[1] = dose: 100.0 mg/kg/injection, schedule: Q01DX009 (ip), vehicle: saline with Tween-80
[2] = dose: 200.0 mg/kg/injection, schedule: Q01DX009 (ip), vehicle: saline with Tween-80
[3] = dose: 25.0 mg/kg/injection, schedule: Q01DX009 (ip), vehicle: Klucel (hydroxypropylcellulose) (HPC)
[4] = dose: 50.0 mg/kg/injection, schedule: Q01DX009 (ip), vehicle: Klucel (hydroxypropylcellulose) (HPC)
[5] = dose: 100.0 mg/kg/injection, schedule: Q01DX009 (ip), vehicle: Klucel (hydroxypropylcellulose) (HPC)
[6] = dose: 200.0 mg/kg/injection, schedule: Q01DX009 (ip), vehicle: Klucel (hydroxypropylcellulose) (HPC)
[7] = dose: 400.0 mg/kg/injection, schedule: Q01DX009 (ip), vehicle: Klucel (hydroxypropylcellulose) (HPC)

`CC(=O)OCC(COC(C)=O)(COC(C)=O)COC(C)=O` was tested, and the T/C [1] was 105 % of control, the T/C [2] was 105 % of control and the T/C (dose: 400.0 mg/kg/injection, schedule: Q01DX009 (ip), vehicle: saline with Tween-80) was 100 % of control.
`COc1ccc([Se][Se]c2ccc(OC)cc2NC(C)=O)c(NC(C)=O)c1` was tested, and the T/C (dose: 50.0 mg/kg/injection, schedule: Q01DX009 (ip), vehicle: saline with Tween-80) was 102 % of control, the T/C [1] was 92 % of control and the T/C [2] was 100 % of control.
For `C=C(C)CNC1=C(C)C(=O)C2=C(C1=O)[C@H](COC(N)=O)[C@]1(OC)[C@@H]3N[C@@H]3CN21`, the T/C (dose: 0.13 mg/kg/injection, schedule: Q01DX001 (ip), vehicle: distilled water + Tween-80) was 100 % of control, the T/C (dose: 0.25 mg/kg/injection, schedule: Q01DX001 (ip), vehicle: distilled water + Tween-80) was 114 % of control and the T/C (dose: 1.5 mg/kg/injection, schedule: Q04DX003 (ip), vehicle: distilled water + Tween-80) was 123 % of control. The T/C (dose: 2.0 mg/kg/injection, schedule: Q01DX001 (ip), vehicle: distilled water + Tween-80) was 153 % of control, the T/C (dose: 3.0 mg/kg/injection, schedule: Q04DX003 (ip), vehicle: distilled water + Tween-80) was 157 % of control and the T/C (dose: 4.0 mg/kg/injection, schedule: Q01DX001 (ip), vehicle: distilled water + Tween-80) was 167 % of control. For the same compound, the T/C (dose: 6.0 mg/kg/injection, schedule: Q04DX003 (ip), vehicle: distilled water + Tween-80) was 215 % of control and the T/C (dose: 12.0 mg/kg/injection, schedule: Q04DX003 (ip), vehicle: distilled water + Tween-80) was 285 % of control.
With `CN(C)c1ccc2c(SCC(=O)OCC(=O)[C@@]3(O)CC[C@H]4[C@@H]5CCC6=CC(=O)C=C[C@]6(C)[C@H]5C(=O)C[C@@]43C)c3ccc(N(C)C)cc3nc2c1` the T/C [3] was 101 % of control, the T/C [4] was 96 % of control and the T/C [5] was 101 % of control. For the same compound, the T/C [6] was 113 % of control and the T/C [7] was 98 % of control.
In the case of `c1ccc(C[P+](c2ccccc2)(c2ccccc2)c2ccccc2)cc1`, the T/C (dose: 2.5 mg/kg/injection, schedule: Q01DX009 (ip), vehicle: other) is reported as 92 % of control, the T/C (dose: 5.0 mg/kg/injection, schedule: Q01DX009 (ip), vehicle: other) is reported as 94 % of control and the T/C (dose: 10.0 mg/kg/injection, schedule: Q01DX009 (ip), vehicle: other) is reported as 94 % of control. For the same compound, the T/C (dose: 20.0 mg/kg/injection, schedule: Q01DX009 (ip), vehicle: other) was 89 % of control.
With `CN(Cc1cnc2nc(N)nc(N)c2n1)c1c(Cl)cc(C(=O)NC(CCC(=O)O)C(=O)O)cc1Br` (stereo unspecified) the T/C (dose: 25.0 mg/kg/injection, schedule: Q01DX011 (ip), vehicle: saline) was 101 % of control and the T/C (dose: 50.0 mg/kg/injection, schedule: Q01DX011 (ip), vehicle: saline) was 105 % of control.
With `C=C(C)[C@]12CC(C)C34OC(/C=C\C=C\CCCCCCCCC)(O[C@@H]1[C@@H]3[C@@H]1O[C@]1(CO)[C@@H](O)[C@]1(O)C(=O)C(C)=C[C@@H]41)O2` (stereo partly specified) the T/C (dose: 0.09 mg/kg/injection, schedule: Q01DX009 (ip), vehicle: alcohol) was 88 % of control, the T/C (dose: 0.18 mg/kg/injection, schedule: Q01DX009 (ip), vehicle: saline + alcohol) was 98 % of control and the T/C (dose: 0.19 mg/kg/injection, schedule: Q01DX009 (ip), vehicle: alcohol) was 88 % of control. The T/C (dose: 0.37 mg/kg/injection, schedule: Q01DX009 (ip), vehicle: saline + alcohol) was 89 % of control.
For `O=S(O)OS(=O)O`, the T/C (dose: 50.0 mg/kg/injection, schedule: Q04DX003 (ip), vehicle: saline) was 101 % of control, the T/C (dose: 100.0 mg/kg/injection, schedule: Q04DX003 (ip), vehicle: saline) was 101 % of control and the T/C (dose: 200.0 mg/kg/injection, schedule: Q04DX003 (ip), vehicle: saline) was 94 % of control.
`OCc1cc(Cl)ccc1O` was tested, and the T/C [4] was 103 % of control, the T/C [5] was 96 % of control and the T/C [6] was 86 % of control.
`C/C=C(/C(=O)NC(N)=O)C(C)C` was tested, and the T/C [3] was 100 % of control, the T/C [4] was 105 % of control and the T/C [5] was 105 % of control. The T/C [6] was 94 % of control and the T/C [7] was 97 % of control.
With `O=CNC(CSSCC(NC=O)C(=O)O)C(=O)O` (stereo unspecified) the T/C [1] was 93 % of control and the T/C [2] was 95 % of control.
For `OC(c1ccccc1)(c1ccccc1)C1CC1c1ccncc1` (stereo unspecified), the T/C (dose: 12.5 mg/kg/injection, schedule: Q01DX009 (ip), vehicle: saline) was 113 % of control, the T/C (dose: 25.0 mg/kg/injection, schedule: Q01DX009 (ip), vehicle: saline) was 95 % of control and the T/C (dose: 50.0 mg/kg/injection, schedule: Q01DX009 (ip), vehicle: saline) was 102 % of control. The T/C (dose: 100.0 mg/kg/injection, schedule: Q01DX009 (ip), vehicle: saline) was 107 % of control.
